Where “and” joins values, the source holds several entries; their conditions need not be identical. Equal values may be shown once.
Legend:
human NK1 receptors = target: T1, human NK1 receptors (Homo sapiens, UniProt P25103); assay: In vitro receptor binding assay, [3H]SP in MEL cell membranes expressing cloned human NK1 receptors; details: for Ki: inhibition of [3H]SP binding to cloned hNK1 receptors in MEL cell membranes, read-out: hNK1 (Ki expressed as -Log Molar) (converted)
T1 construct: expressed in transfected cells; host or cells: MEL cells (membranes)
Protocol: (§1) Preparation of Membranes from MEL Cells Transfected with Cloned Human NK1 or NK2 Receptors:
(§2) The cloning of the human lung NK1 and NK2 receptors was achieved as described by Hopkins, et al., Biochem. Biophys. Res. Commun. 180: 1110-1117 (1991), and Graham, et al., Biochem. Biophys. Res. Commun. 177: 8-16 (199.1). Heterologous expression and scale-up growth of MEL cells transfected with human tachykinin receptors was performed as described for NK2 receptors by Aharony, et al., Mol. Pharmacol. 45: 9-19, 1994.
(§3) Membranes from recombinant MEL cells expressing NK1 or NK2 receptors were prepared as described by Hopkins, et al., (1991). Briefly, cells were homogenized at 4° C. (Brinkman PT-20 Polytron, setting 3, with one 15 sec burst on ice), in a buffer consisting of 50 mM Tris-HCl (pH7.4), 5 mM KCl, 120 mM NaCl, 10 mM EDTA and containing several protease inhibitors (1 mM phenylmethylsulfonylfluoride; 0.1 mg/ml soybean trypsin inhibitor, and 1 mM iodoacetamide). The homogenate was centrifuged at 1200×g for 45 min at 4° C. to remove cell debris. The supernatant was centrifuged at 48,000×g for 45 min at 4° C. The pellet was resuspended with a glass-Teflon motorized homogenizer in 30 volumes of ice-cold 50 mM Tris-HCl (pH 7.4) buffer.
(§4) Ligand binding assays with [^3H]NKA in MEL cells expressing cloned NK2 receptors or (^3H]SP in MEL cells expressing cloned NK1 receptors, were conducted generally as described by Aharony, et al., Mol. Pharmacol. 45: 9-19, 1994, Aharony, et al., Neuropeptides 23: 121-130 (1992) and Aharony, et al., J. Pharmacol. Exp. Ther. 259: 146-155 (1991). In brief, incubations were carried out in assay buffer containing membranes, test compounds, and [^3H] ligand (1.0-1.5 nM). In competition experiments, mixtures (0.315 mL) containing various concentrations of competing agents (agonists, antagonists, or vehicle), were incubated at 25° C. for 30 min., with or without 1 μM unlabeled homogenous ligand (NKA or SP), to define non-specific binding. Reactions were initiated by adding membranes (0.1-0.15 mg protein/final concentration) and were conducted in duplicate. Saturation and kinetic experiments were conducted in triplicate. Separation of receptor-bound and free ligand was accomplished by dilution with 1 mL of wash buffer (20 mM Tris-HCl, pH 7.5) followed immediately by vacuum filtration with a total volume of 10 mL of wash buffer (utilizing a Brandel Cell Harvester MB-48R with Whatman GF/B filters presoaked in 0.1% polyethylenimine).
(§5) The ability of compounds disclosed herein to inhibit the binding of [^3H] ligand is shown by the results disclosed in Table 1.

[1] = test system: BANK-mediated GP bladder contraction; assay: BANK-induced bladder contraction in anesthetized guinea pigs; type: in vivo, guinea pig; details: for Inhibition of BANK-mediated GP bladder contraction (% Inhibition mediated by 52 nmol/kg administered orally): anesthetized female guinea pigs, 52 nmol/kg by gavage 1 hr before BANK, mean ± S.E.M.
Protocol: BANK-Induced Bladder Contraction in Anesthetized Guinea Pigs:
Female guinea pigs (300-450 g) were anesthetized by intramuscular administration of ketamine/xylazine mixture (3/10 mg/kg, respectively). The jugular vein was catheterized and the distal end of the catheter connected to a syringe for administration of compound where appropriate. Subsequently, the bladder was exposed through a midline abdominal incision, the ureters tied with 4-0 silk suture approximately 2 cm above the bladder, and cut above the ligature to allow drainage from the kidneys. Cannula were passed through the proximal urethra and bladder sphincter into the bladder lumen. The bladder was manually emptied, infused with 0.3 mL saline, and the catheter attached to a Gould p23 ID pressure transducer for recording changes in bladder pressure. An equilibration period of approximately 15 min was allowed for stabilization of the animals following surgical preparation. Thiorphan (10 mg/kg iv) was administered 15 minutes before agonist exposure to inhibit neutral endopeptidase 3.4.24.11.
To establish the oral effect of test compounds, animals were administered the test compounds (52 nmol/kg, 5% PEG 400-saline vehicle) by gavage 1 hr before administration of BANK. Changes in bladder contraction occurring in the presence and absence of test compound were recorded as an increase in intravesical bladder pressure on a Grass 7D Polygraph and expressed as the precentage change in response. Duration of action studies were performed following oral administration of test compounds (52 nmol/kg, 5% PEG 400-saline vehicle) at different times prior to administration of BANK. Responses were calculated as the percentage difference between the response to BANK in the presence of test compound compared with sham-treated controls. For all studies, each animal was administered a single dose of test compound. Experimental results were expressed as the mean plus or minus the Standard Error of the Mean (±S.E.M) percentage change from basal level.
The ability of compounds disclosed herein to inhibit bladder contractions induced with BANK is shown by the results disclosed in Table 1.

human NK2 receptors = target: T2, human NK2 receptors (Homo sapiens, UniProt P21452); assay: In vitro receptor binding assay, [3H]NKA in MEL cell membranes expressing cloned human NK2 receptors; details: inhibition of [3H]NKA binding to cloned hNK2 receptors in MEL cell membranes; read-out: hNK2 (Ki expressed as -Log Molar) (converted)
T2 construct: expressed in transfected cells; host or cells: MEL cells (membranes)
T2 sequence (P21452 1-398): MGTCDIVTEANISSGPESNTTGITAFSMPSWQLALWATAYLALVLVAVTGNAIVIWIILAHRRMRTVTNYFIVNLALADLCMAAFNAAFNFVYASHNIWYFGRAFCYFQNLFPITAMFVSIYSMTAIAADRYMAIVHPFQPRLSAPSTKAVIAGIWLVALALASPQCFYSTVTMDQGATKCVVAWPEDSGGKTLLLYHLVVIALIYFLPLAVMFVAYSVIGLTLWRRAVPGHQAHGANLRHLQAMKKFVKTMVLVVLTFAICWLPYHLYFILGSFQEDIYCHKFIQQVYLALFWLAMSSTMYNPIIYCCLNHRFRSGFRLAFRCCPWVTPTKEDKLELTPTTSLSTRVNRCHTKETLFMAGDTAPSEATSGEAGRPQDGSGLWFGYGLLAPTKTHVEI
Protocol: as §1, §2, §3, §4, §5

T1 sequence (P25103 whole entry): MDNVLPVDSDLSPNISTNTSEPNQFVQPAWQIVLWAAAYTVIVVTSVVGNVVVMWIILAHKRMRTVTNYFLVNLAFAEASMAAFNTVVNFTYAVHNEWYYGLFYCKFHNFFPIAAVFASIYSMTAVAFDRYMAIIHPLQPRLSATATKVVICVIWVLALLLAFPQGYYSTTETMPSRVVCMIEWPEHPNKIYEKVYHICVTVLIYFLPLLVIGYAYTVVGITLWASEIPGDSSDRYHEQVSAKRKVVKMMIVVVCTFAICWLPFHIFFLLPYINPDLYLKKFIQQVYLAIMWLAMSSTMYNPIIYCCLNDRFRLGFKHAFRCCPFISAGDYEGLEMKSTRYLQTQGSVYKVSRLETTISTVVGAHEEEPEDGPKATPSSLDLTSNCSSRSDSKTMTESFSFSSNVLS

Row | Structure (SMILES) | inhibition at 10 µM (human NK1 receptors; at 10 μM, [3H]SP binding, cloned hNK1 receptors) [%] | Ki (human NK2 receptors) [nM] | Ki (human NK1 receptors) [nM] | Inhibition of BANK-mediated GP bladder contraction (% Inhibition mediated by 52 nmol/kg administered orally) [1] | Effect on bladder contraction induced by BANK (in words) ([1]; guinea pig, BANK-induced bladder contraction)
1 | CN(C[C@@H](CCN1CCC(N2CC(C)(C)CNC2=O)CC1)c1ccc(Cl)c(Cl)c1)C(=O)c1ccccc1 [Example 1, (S)-N-[2-(3,4-Dichlorophenyl)-4-[4-(2-oxo-5,5-dimethyl-perhydropyrimidin-1-yl)piperidino]butyl]-N-methylbenzamide] | 90 | 0.55 |  | 27 ± 13% | 
2 | CCN(C[C@@H](CCN1CCC(N2CCCNC2=O)CC1)c1ccc(Cl)c(Cl)c1)C(=O)c1ccccc1 [Example 3, (S)-N-{2-(3,4-Dichloro-phenyl)-4-[4-(2-oxo-tetrahydro-pyrimidin-1-yl)-piperidin-1-yl]-butyl}-N-ethyl-benzamide free base] |  | 1.41 | 66.1 | 64% and 64 ± 6% | 
3 | CN(C[C@@H](CCN1CCC(N2CCCNC2=S)CC1)c1ccc(Cl)c(Cl)c1)C(=O)c1ccccc1.Cl.Cl [Example 5, (S)-N-[2-(3,4-Dichlorophenyl)-4-[4-(2-thioxoperhydro-pyrimidin-1-yl)-piperidino]butyl]-N-methylbenzamide dihydrochloride] |  | 1.38 | 251 | −9 ± 39% | increase the bladder contraction induced by BANK

More lines, main results first:

Row | inhibition at 10 µM (human NK1 receptors; at 10 μM, [3H]SP binding, cloned hNK1 receptors) [%] | Ki (human NK2 receptors) [nM] | Ki (human NK1 receptors) [nM] | Structure (SMILES) | Inhibition of BANK-mediated GP bladder contraction (% Inhibition mediated by 52 nmol/kg administered orally) [1] | Effect on bladder contraction induced by BANK (in words) ([1]; guinea pig, BANK-induced bladder contraction)
4 |  | 0.245 | 112 | CCN1CCCN(C2CCN(CC[C@H](CN(C)C(=O)c3ccccc3)c3ccc(Cl)c(Cl)c3)CC2)C1=O.O=C(O)CC(O)(CC(=O)O)C(=O)O [Example 2, (S)-N-[2-(3,4-Dichlorophenyl)-4-[4-(3-ethyl-2-oxoperhydro-pyrimidin-1-yl)-piperidino]butyl]-N-methylbenzamide citrate] | 26 ± 16% | 
5 |  | 1.74 | 61.7 | CN(C[C@@H](CCN1CCC(N2CCCNC2=O)CC1)c1ccc(Cl)c(Cl)c1)C(=O)c1ccc(F)cc1.O=C(O)CC(O)(CC(=O)O)C(=O)O [Example 4, (S)-N-[2-(3,4-Dichlorophenyl)-4-[4-(2-oxoperhydro-pyrimidin-1-yl)piperidino]butyl]-4-fluoro-N-methylbenzamide citrate] | 55 ± 11% | 

— patent publication US20040248914A1, “Method for the treatment of overactive bladder” (priority 2001, published 2004)
